Marks after values point to notes of the source that are not given here. Square brackets hold non-standard residues; d marks the D form. Ends that are not written are not given here. Peptide text beside a SMILES is read from it.
Tests used:
[1] = tested on: THP1-Dual monocyte reporter cell line; test: THP1-Dual myeloid cell differentiation assay (PMA protocol); assay type: cell-based, human; details: PMA 24 h, then peptide 0.33 uM or 0.66 uM 24 h; for CD169+ (AU) / Clec12A(AU): relative to immX3AVD = 100
Protocol: (§1) Mammalian cell differentiation assays employed the THP1-Dual monocyte reporter cell line (Invivogen Inc, San Diego, CA) seeded at 2×10e5 cells per well in 96-well plates and cultured at 37 degrees C. in RPMI-1640 growth medium plus 10% fetal bovine serum and 1% penicillin/streptomycin. Cells were subsequently treated for 24 hours with 100 ng/ml Phorbol 12-myristate 13-acetate (PMA protocol; Cayman Chemical Company, Ann Arbor, MI). Peptide (0.33 uM or 0.66 uM, as indicated) was then added, and incubation continued for an additional 24 hours. Culture supernatants were assayed for CCL22. Plates with adherent cells were washed with PBS and assayed for immunoreactivity of surface markers such as CD169, Clec9a or Clec12a using fuorescent tag- or biotin-labeled anti-human antibodies purchased from Miltenyi Biotec (Auburn, CA) and the secondary detection reagent recommended by the manufacturer.

[2] = Plate binding of FITC-labelled heparin to immobilised biotinylated peptides; details: 400 ng peptide/well, 1 ug FITC-heparin, PBS; normalized to immX3 peptide binding = 100
Protocol: (§2) Effects of pH, PIP2 and size classes: Streptavidin-coated 96-well plates (G-Biosciences, St. Louis, MO) were pre-loaded with biotinylated peptides [see Example 1] at 400 ng/well, at room temperature for 60 minutes. The plate was washed with PBS buffer and then 1 ug FITC-labelled heparin or hyaluronic acid (FITC-HMW-HA) in 100 uL PBS buffer was added per well (all tests done in quadruplicate). Incubation proceeded for 90 minutes at room temperature, followed by two PBS washes. The plate was read in a standard laboratory fluorometer (488/525 nm exitation/[…]) and the counts normalized for immX3 peptide binding=100. Values statistically above background are shown in bold font. **p<0.05 versus immX3AVD.

[3] = Plate binding of FITC-labelled hyaluronic acid to immobilised biotinylated peptides; details: 400 ng peptide/well, 1 ug FITC-HMW-HA, PBS; normalized to immX3 peptide binding = 100
Protocol: as §2

[4] = tested on: C2C12 myoblastic cell line; test: C2C12 myoblast differentiation, creatine kinase; assay type: cell-based; details: 0.66 uM peptide, 96 hours; helper none; relative to immX3AVD = 100
Protocol: Differentiation assays employed the C2C12 myoblastic cell line (ATCC, Manassas, VA) seeded at 2×10e5 cells per well in 96-well plates and cultured at 37 degrees C. in DMEM growth medium plus 10% fetal bovine serum and 1% penicillin/streptomycin. For differentiation, 10% fetal bovine serum was replaced with 2% horse serum. 0.66 uM peptide was then added, and incubation continued for an additional 96 hours. Plates with adherent cells were washed with PBS, lysed with Lytic-M buffer (Sigma Chemical Company, St. Louis, MO) and the lysates were assayed for creatine kinase using a kit purchased from Bioassay Systems (Cat. #ECPK-100, Hayward, CA). Effects were visually confirmed with microscopy tracking myotube formation. Results were expressed as units per milliliter relative to the control immX3AVD peptide, and p values were also calculated and shown relative to control immX3AVD peptide (** p<0.05 versus immX3AVD control; avg±SD).

[5] = PIP-binding membrane assay (Membrane Lipid Strips); set-up: key: —: −−− no binding; +++ strong binding; details: 400 ng peptide
Protocol: N-terminally biotinylated versions of the peptides listed below were used in various assays listed in the examples. For the two types of phosphatidylinositon phosphate (PIP)-binding assays, imm1-imm6 peptides were used.
In the PIP-binding membrane assay, 400 ng of each peptide was bound to Membrane Lipid Strips (Catalog # P-6002, Echelon Biosciences, Salt Lake City, UT) and developed according to the manufacturer's instructions. Binding to PIPs was as follows (−−− no binding; +++ strong binding): […]

[6] = tested on: Primary human T-cells pre-selected for recognizing GAD65 peptide antigen; test: GAD65-specific primary T-cell differentiation on peptide-treated THP1-Dual cells; assay type: cell-based; details: peptide 0.66 uM, GAD65 1 ug/ml
Protocol: as §1
Another non-myeloid lineage was also tested. Primary human T-cells pre-selected for recognizing GAD65 peptide antigen, and the peptide antigen itself were purchased from Cellero LLC (Memphis, TN). THP1-Dual cells were treated with both GAD65 peptide antigen (1 ug/ml) and immodulin peptide (0.66 uM) using the protocol described in Example 2. After completion of the myeloid cell differentiation step (24 hours), supernatants were collected and 100,000 primary T-cells were added to each well in RPMI-1640 medium (100 uL per well). Plates were incubated for an additional 96 hours and cell extracts were prepared using CellLytic-M reagent (Sigma Chemical Co., St Louis, MO). Supernatants were assayed for CCL22, IL-10 and TGFbeta, and cell extracts assayed for FoxP3, all by ELISA using reagents from R&D Systems, Minneapolis, MN. The results are shown in the table below (**p<0.05 vs immX3AVD, set to=100): […]

Row | Heparin binding (fluorescence counts) [2] | Hyaluronate binding (fluorescence counts) [3] | Binding to Phosphatidylinositol [5] | Binding to PtdIns(3,4,5)P [PIP3] [5] | Binding to PtdIns(4)P [PIP1] [5] | Binding to PtdIns(4,5)P [PIP2] [5] | Compound | CD169+ (AU) [1] [AU] | Clec12A(AU) [1] [AU] | Creatine Kinase Act. [4] | CCL22 ([1]; culture supernatant) [pg/mL] | FoxP3 (AU) ([6]; cell extracts, immX3AVD = 100) | CCL22 ([6]; supernatant) [pg/mL] | IL-10 ([6]; supernatant) [pg/mL] | TGFb ([6]; supernatant) [pg/mL]
1 | 55.5 ± 5.7** | 104.2 ± 14.7 |  |  |  |  | KKGFYKKKQCRPSKGRKRGFCW(dA)(dV)(dD) (KKGFYKKKQCRPSKGRKRGFCW[dA][dV][dD]; cysteine pairing not given here) [immX3dAdVdD] | 183.3 ± 6.4 | 106.6 ± 5.2 | 132.8 ± 5.2** units per milliliter |  |  |  |  | 
2 | 56.0 ± 7.3** | 101.9 ± 16.4 |  |  |  |  | SLNPEWNETKGFYKKKQCRPSKGRKRGFCW(dA)(dV)(dD) (SLNPEWNETKGFYKKKQCRPSKGRKRGFCW[dA][dV][dD]; cysteine pairing not given here) [immX3K1dAdVdD] | 249.3 ± 13.9 | 321.9 ± 25.6 |  | 135.8 ± 24.2 |  |  |  | 
3 | 7.3 ± 17.1 | 61.1 ± 34.1 |  |  |  |  | RNGNFHPKQCHPALDGQRGKCWAVD [immX4AVD] | 1.0 ± 0.3 |  |  |  |  |  |  | 
4 | 27.4 ± 22.9 | 3.1 ± 9.8 | — | — | — | — | CSCC[C@H](NC(=O)[C@H](CCCCN)NC(=O)[C@H](CS)NC(=O)[C@H](CCC(N)=O)NC(=O)[C@H](CCCCN)NC(=O)[C@H](CC(C)C)NC(=O)[C@H](CC(N)=O)NC(=O)[C@H](Cc1ccc(O)cc1)NC(=O)[C@H](CC(C)C)NC(=O)CNC(=O)[C@H](Cc1c[nH]cn1)NC(=O)[C@@H](N)CCCCN)C(=O)N[C@@H](CO)C(=O)N[C@@H](CC(C)C)C(=O)N[C@@H](CC(N)=O)C(=O)NCC(=O)N[C@@H](CCC(N)=O)C(=O)N[C@@H](CCCNC(=N)N)C(=O)NCC(=O)N[C@@H](CCC(=O)O)C(=O)N[C@@H](CS)C(=O)N[C@@H](Cc1c[nH]c2ccccc12)C(=O)O [imm2] | 3.0 ± 0.5 |  |  |  |  |  |  | 
5 | 97.2 ± 17.3 | 44.9 ± 14.1** | — | — | — |  | N=C(N)NCCC[C@H](NC(=O)[C@H](CCCNC(=N)N)NC(=O)[C@H](CCC(N)=O)NC(=O)CNC(=O)[C@H](CCC(N)=O)NC(=O)[C@H](CO)NC(=O)[C@H](CO)NC(=O)[C@H](CCCNC(=N)N)NC(=O)[C@H](CS)NC(=O)[C@H](CCC(N)=O)NC(=O)[C@H](CCCNC(=N)N)NC(=O)[C@H](CCCCN)NC(=O)[C@H](CCCNC(=N)N)NC(=O)[C@H](Cc1ccc(O)cc1)NC(=O)[C@H](Cc1ccccc1)NC(=O)CNC(=O)[C@H](CCCNC(=N)N)NC(=O)[C@@H](N)Cc1c[nH]cn1)C(=O)NCC(=O)N1CCC[C@H]1C(=O)N[C@@H](CS)C(=O)N[C@@H](Cc1c[nH]c2ccccc12)C(=O)O [imm6] (H-HRGFYRKRQCRSSQGQRRGPCW-OH) | 19.9 ± 2.3 |  |  |  |  |  |  | 
6 |  |  |  |  |  |  | KKGFYKKKQCRPSKGRKRGFCW(dS)(dV)(dD) (KKGFYKKKQCRPSKGRKRGFCW[dS][dV][dD]; cysteine pairing not given here) [immX3dSdVdD] | 145.7 ± 9.3 |  | 155.6 ± 14.1** units per milliliter |  | 176.6 ± 8.0** AU | 77.8 ± 2.0 | 1534 ± 176.4 | 87.6 ± 10.7
